# Assay results reported in US11058685B2, “Therapeutic agent for tumors identified by phosphorylation of proto-oncogene protein belonging to VAV family” (priority 2016, dated 2021).
# What was measured:
# NFAT activity = assay: NFAT luciferase reporter activity in Jurkat cells expressing VAV1 mutant; format: cell-based, human; conditions: dasatinib 0 to 10 nM, 30 minutes, anti-CD3 stimulation, FIG. 16
# Experimental: In accordance with the protocol of Dual Luciferase Reporter Assay (Promega), firefly luciferase activity and renilla luciferase activity were each measured, and the value of firefly luciferase was divided by the value of renilla luciferase to correct the transfection efficiency. In more detail, the cells were mixed with Passive Lysis Buffer (PLB) in a volume of 100 μl/tube, followed by freezing at −80° C. to lyse the cells. After centrifugation, the supernatants were collected. In a 96-well plate. LARII was dispensed in a volume of 100 μl/well. 20 μl of each cell lysate was added. The plate was mounted on a luminometer and Stop & Glo® Reagent was added in 100 μL volumes, followed by measurement again with the luminometer.
# In a 96-well flat-bottomed plate, LEAF™ purified anti-human CD3 Ab (BioLegend) adjusted to 10 μg/ml with PBS was dispensed in a volume of 50 μL/well and incubated overnight at 4° C. After removal of the antibody solution, each well was washed three times with sterile PBS.
# Jurkat cells were seeded at 5×10^4 cells/well in a 24-well plate. […] After 30 minutes, the cells were collected and then stimulated with LEAF™ purified anti-human CD3 Ab (BioLegend) and measured for firefly luciferase activity and renilla luciferase activity by reference to Example 3 described above, etc.
# [1] = test system: angioimmunoblastic T-cell lymphoma (AITL) model mice; assay: AITL therapeutic transplant model: nude mice injected with donor mouse swollen lymph node-derived cells; format: in vivo
# Experimental: An AITL model is regarded as having been established, but a long incubation period is required to observe oncogenesis after pIpC administration. For this reason, this genetically modified mouse model is not suitable for use in therapeutic experiments. Thus, an attempt was made to establish a transplant model. […] It should be noted that inflammatory cells migrating to the tumor tissue were composed of donor mouse-derived cells and host mouse-derived cells in admixture.
# Donor mouse swollen lymph node-derived cells (2×10^7 cells) were all intraperitoneally injected into nude mice and, after 2 weeks (after lymph node swelling was observed by echography in some mice), 5 mg/kg of dasatinib dissolved in a solution of propylene glycol:distill water adjusted to 1:1 was orally administered to the mice for successive 14 days (the dasatinib group: “Dasatinib” in FIG. 17). As a control, nude mice under completely the same conditions were administered with the same volume of the solution alone (propylene glycol: distill water=1:1) according to the same schedule (the control group: “Vehicle” in FIG. 17). The results of these administration experiments are show in FIG. 17.
# PLC-gamma 1 = PLC-gamma 1 phosphorylation (Western blot) in Jurkat cells expressing G17V RHOA mutant; format: cell-based, human; conditions: dasatinib 0 to 10 nM, 30 minutes, FIG. 7(B)
# Experimental: (§1) (1) Jurkat cells (T-cell leukemia cell line) engineered with a lentivirus-mediated Tet-On system to express wild-type RHOA cDNA or a RHOA coding region modified to comprise a G to T substitution at position 50 of the coding region (hereinafter referred to as G17V RHOA cDNA) were seeded in RPMI (10% FCS, 1% PS) at 2×10^5 cells/mL in 15 cm petri dishes in triplicate. Doxycycline was added to give a final concentration of 2 μg/mL. On the following day, the cells were collected and centrifuged, and then seeded in RPMI (serum-free) at 6×10^5 cells/mL in 15 cm petri dishes in triplicate. After 4 hours, the cells were collected and washed once with sterile phosphate buffered saline (PBS), and then adjusted to 2×10^4 cells/ml and transferred to 15 ml tubes, followed by incubation at 37° C. for 5 minutes. LEAF™ purified anti-human CD3 Ab (BioLegend) and anti-mouse IgG antibody Ab (at 2 μg/ml each) were added. The cells were incubated at 37° C. for 5 minutes or 30 minutes. Cold PBS (10 ml) was added to each tube, followed by centrifugation to remove the supernatants. Lysis buffer (supplemented in advance with complete protease inhibitor and PhosSTOP) was added in a volume of 1000 μl/tube. The tubes were incubated on ice for 20 minutes and centrifuged to collect the supernatants. Laemuli's buffer and DTT were added, followed by incubation at 95° C. for 5 minutes. […]
# VAV1 [2] = assay: VAV1 Y174 phosphorylation in Jurkat cells expressing VAV1 mutant, anti-CD3 stimulation; format: cell-based, human; conditions: dasatinib 0 to 10 nM, 30 minutes, FIG. 15
# [3] = test system: interleukin-2 mRNA expression; assay: Interleukin-2 mRNA expression in Jurkat cells expressing G17V RHOA mutant, CD3/CD28 bead stimulation; format: cell-based, human; conditions: dasatinib 0 to 10 nM, CD3/CD28 beads, 3 hours, FIG. 8
# Experimental: Dynabeads T-activator CD3/CD28 (Veritas) were mixed with buffer (PBS supplemented with 0.1% BSA+2 mM EDTA, pH 7.4) and allowed to stand on a magnetic rack to remove the supernatant.
# Jurkat cells engineered with a lentivirus-mediated Tet-On system to express wild-type or G17V RHOA cDNA were seeded in RPMI (10% FCS, 1% PS) at 2×10^5 cells/mL in 15 cm petri dishes in triplicate. Doxycycline was added to give a final concentration of 2 μg/mL. On the following day, the cells were collected and seeded in a 24-well plate. The Dynabeads T-activator CD3/CD28 (Veritas) washed above were added. After 3 and 6 hours, the cells were collected. The cells were washed once with PBS and their RNA was extracted with an RNeasy Mini Kit (Qiagen). […] IL-2 mRNA was measured with the primer/probe sets of Taqman Gene Expression Assays (Thermo Fisher Scientific). rRNA was measured with TaqMan® Ribosomal RNA Control Reagents (Thermo Fisher Scientific) and used for correction.
# Jurkat cells engineered with a lentivirus-mediated Tet-On system to express wild-type RHOA or G17V RHOA cDNA were seeded in RPMI (10% FCS, 1% PS) at 2×10^5 cells/mL in 15 cm petri dishes in triplicate. […] IL-2 mRNA was measured with the primer/probe sets of Taqman Gene Expression Assays (Thermo Fisher Scientific). rRNA was measured with TaqMan® Ribosomal RNA Control Reagents (Thermo Fisher Scientific) and used for correction.
# phosphorylated VAV1 = assay: Anti-phosphorylated VAV1 staining of swollen lymph node sections of AITL transplant model mice; format: in vivo, mouse; conditions: nude mice; dasatinib three times daily for 2 days, 2 weeks after cell injection; sacrificed on the following day
# Experimental: In addition, donor mouse swollen lymph node-derived cells (2×10^7 cells) were all intraperitoneal injected into nude mice and, after 2 weeks, dasatinib or a control solution was administered three times daily for 2 days in accordance with the above procedure. On the following day, the nude mice were sacrificed, and thin section specimens were prepared from their swollen lymph nodes and then stained with anti-phosphorylated VAV1 antibody.
# VAV1 [4] = assay: VAV1 Y174 phosphorylation (Western blot) in Jurkat cells expressing G17V RHOA mutant, anti-CD3 stimulation; format: cell-based, human; conditions: dasatinib 0 to 10 nM, 30 minutes, FIG. 7(A)
# Experimental: as §1
# [5] = 5 mg/kg orally for successive 14 days, FIG. 17
compound,measurement,setting,value
"Cc1nc(Nc2ncc(C(=O)Nc3c(C)cccc3Cl)s2)cc(N2CCN(CCO)CC2)n1 [dasatinib, N-(2-chloro-6-methyl-phenyl)-2-[[6-[4-(2-hydroxyethyl)-1-piperazinyl]-2-methyl-4-pyrimidinyl]amino]-5-thiazolecarboxamide]",enhanced NFAT activity induced by VAV1 mutant expression,NFAT activity,cancels the enhanced NFAT activity
same,mice showing progression of lymphoma (body weight loss and hyposthenia),"[1]; 5 mg/kg orally for successive 14 days starting 2 weeks after cell injection, observation period of 150 days, 6/18",33.3%
same,progression of lymphoma versus control group,[1]; [5],progression was significantly suppressed
same,survival versus control group,[1]; [5],survival was prolonged
same,enhanced PLC-gamma 1 phosphorylation induced by G17V RHOA mutant expression,PLC-gamma 1,cancels the enhanced PLC-gamma 1 phosphorylation
same,enhanced Y174 phosphorylation induced by VAV1 mutant expression,VAV1 [2],cancels the enhanced Y174 phosphorylation
same,enhanced interleukin-2 mRNA expression induced by G17V RHOA mutant expression,[3],cancels the enhanced interleukin-2 mRNA expression
same,phosphorylated VAV1 staining in swollen lymph nodes,phosphorylated VAV1,phosphorylated VAV1 was not stained
same,enhanced Y174 phosphorylation (VAV1) induced by G17V RHOA mutant expression,VAV1 [4],cancels the enhanced Y174 phosphorylation
